± gives the expanded uncertainty stated by the source.

The data set is described as follows: cn = amount concentration of the nth substance listed, in mol/dm3. The conditions noted are these: 101 kPa, Liquid, Capillary tube (Ostwald / Ubbelohde) method, c1 = 2.

For `[Cl-].[K+]` [potassium chloride] + O, the viscosity (usually the internal friction of a fluid under shear) by setting is: (298.15 K) 0.9063 ± 0.0073 mPa·s; (303.15 K) 0.8279 ± 0.0067 mPa·s; (308.15 K) 0.7573 ± 0.0062 mPa·s; (313.15 K) 0.6954 ± 0.0058 mPa·s; (318.15 K) 0.64 ± 0.0054 mPa·s; (323.15 K) 0.5914 ± 0.0051 mPa·s.

For the compound `O=[N+]([O-])[O-].[K+]` [potassium nitrate] + O, the viscosity runs as follows: (298.15 K) 0.8985 ± 0.0072 mPa·s; (303.15 K) 0.8134 ± 0.0066 mPa·s; (308.15 K) 0.7473 ± 0.0061 mPa·s; (313.15 K) 0.6857 ± 0.0057 mPa·s; (318.15 K) 0.6322 ± 0.0054 mPa·s; (323.15 K) 0.5838 ± 0.005 mPa·s.

These data come from the NIST ThermoML archive (doi:10.1007/s10765-011-0996-9).
